# According to patent publication US20250186503A1, “METHODS AND COMBINATIONS FOR TREATMENT AND T CELL MODULATION” (Juno Therapeutics, Inc., priority 2018, published 2025):
# Columns and labels:
# [1] = system: RPMI-8226; experiment: 7-day prestimulation of anti-BCMA CAR-T cells on BCMA beads, phenotype and re-challenge with RPMI-8226; type: cell-based, human
# Method: Expression of CD25, PD-1, Tim3 and Lag3 on CAR T cells (using an antibody for surrogate CAR marker) cultured under the different conditions then was assessed by flow cytometry.
# Percentage killing was normalized to anti-BCMA CAR T cells prestimulated on beads in the presence of vehicle. Cytokine production was assessed by ELISA from supernatant following culture with target cells for 24 hours. Experiments were performed twice in 3 donors. […] P values were obtained by likelihood ratio tests comparing the full model with the effect of interest against the model without the effect of interest.
# [2] = system: OPM-2; experiment: OPM-2 human multiple myeloma orthotopic mouse model, Study 1; type: in vivo
# Method: Mice (NOD.Cg-Prkd^scidIL-2rg^tm1Wjl/SzJ mice (NSG; Jackson Labs)) were injected intravenously (i.v.) with 2×10^6 OPM2 (multiple myeloma) cells transfected with firefly luciferase (OPM2-ffluc). Tumor engraftment was allowed to occur for 13 days prior to staging (14 days before CAR-T cell administration) and verified using bioluminescence imaging.
# In groups receiving CAR+ T cells, anti-BCMA CAR (generated by transducing cells derived from samples of human donor subjects essentially as described above) were administered at day 0 (day 14 after tumor cell injection), at a dose of either 5×10^5 (low) or 1×10^6 (high) CAR-expressing T cells. Table E1 summarizes the dosing regimens.
# Tumor burden in animals among the various groups was monitored by bioluminescence imaging up to day 39 post-CAR+ T cell dosing. For bioluminescence imaging, mice received intraperitoneal (i.p.) injections of luciferin substrate (CaliperLife Sciences, Hopkinton, MA) resuspended in PBS (15 μg/g body weight). The total flux (photon/s) was determined at each time point.
# Table E2 lists median survival (ms) (as assessed at day 56 post-CAR+ T cell administration) and number of mice in group surviving until day 56-post-CAR+ T cell administration, for each animal group assessed in this study.
# [3] = system: MM1.S cells; experiment: Serial restimulation of anti-BCMA CAR+ T cells with irradiated MM1.S target cells; type: cell-based, human; design: CAR-T expansion, each of six donors: dose or concentration left out as unconfirmed
# Method: Anti-BCMA CAR+ T cells generated as described above were plated in triplicate at […] cells/well on 96-well plates.
# Every 3-4 days (start of each new round), CAR T cells were counted. […] 8 rounds of stimulation were carried out during a 31 day culture period. For some rounds, at re-plating, cells were assessed for phenotypic markers via flow cytometry.
# Culture conditions were reset every 3-4 days. Replating was maintained for 28 days or until the cell count was <50,000 cells. Experiments were performed in triplicate in 3 donors. […] Activation of CAR-T cells was measured on cells collected at days 4, 7, and 14 by flow cytometry for CD25.
# [4] = system: RPMI-8226; experiment: Serial restimulation with BCMA-conjugated beads, cytolytic activity against RPMI-8226; type: cell-based, human; conditions: 5 μM
# Method: Cells from each condition were plated in triplicate. The % cell killing compared to vehicle only control (set at 100%) was determined.
# [5] = system: anti-CD19 CAR+ T cells; experiment: Expansion of anti-CD19 CAR+ T cells following serial restimulation with irradiated K562-CD19 cells; type: cell-based, human; conditions: 1 μM, 4 rounds of stimulation, 12 days, two donors
# Method: The ability of anti-CD19 CAR+ T cells to expand ex vivo following repeated stimulations was assessed using methods substantially as described in Example 2. […] For each donor, cells were harvested every 3-5 days from each experimental condition in the wells and counted, and restimulated with new target cells using the same culture conditions after resetting cell number to initial seeding density for each round. A total of 4 rounds of stimulation during a 12 day culture period were carried out. For each round of stimulation, the total number of cells was determined, and the results were depicted as the fold-change of cell number after stimulation (FIG. 17A) or number of doublings compared to initial number (FIG. 17B).
# [6] = system: Raji lymphoma tumor cells; experiment: Raji-ffluc tumor xenograft model, CAR-expressing T cells in combination with Compound 1; type: in vivo, NSG mice
# Method: The anti-tumor efficacy of CAR-expressing T cells in combination with 3-(5-amino-2-methyl-4-oxo-4H-quinazolin-3-yl)-piperidine-2,6-dione (Compound 1) was assessed by monitoring tumors in a tumor xenograft model. Anti-CD19 CAR-expressing T cell compositions, containing CD4+ and CD8+ T cells combined at a 1:1 ratio, were generated substantially as described in Example 14. T cell compositions were generated from three different donors.
# NOD.Cg.Prkdc^scidIL2rg^tmlWjl/SzJ (NSG) mice were injected intravenously (i.v.) with 0.5×10^6 Raji lymphoma tumor cells (an immortalized human B lymphocyte tumor cell line that expresses CD19) that were transfected with firefly luciferase (Raji-ffluc). Tumor engraftment was allowed to occur for 6 days and verified using bioluminescence imaging. On Day 7, mice either received no treatment, or a single intravenous (i.v.) injection of anti-CD19 CAR-expressing cells at a low dose (0.5×10^6 cells) or a high dose (1.0×10^6 cells). […] Tumor burden was assessed by bioluminescence every 10 days. For bioluminescence imaging, mice received intraperitoneal (i.p.) injections of luciferin substrate (CaliperLife Sciences, Hopkinton, MA) resuspended in PBS (15 μg/g body weight). The average radiance (p/s/cm^2/sr) was determined. Survival of mice treated as described above were assessed and compared until day 100 post-infusion of CAR-expressing T cells.
structure (smiles),measurement,setting,value
"Nc1cccc2c1CN(C1CCC(=O)NC1=O)C2=O (stereo not shown) [lenalidomide, 3-(4-amino-1-oxo-1,3-dihydro-2H-isoindol-2-yl)piperidine-2,6-dione]",percentage of PD-1+ cells in the CD4+ population,[1]; 1 μM,decrease
same,cytolytic function of prestimulated CAR-T cells,[1]; 1 μM during the prestimulation period,preserved
same,cytokine production of prestimulated CAR-T cells,"[1]; 1 μM during the prestimulation period, vs vehicle",trend toward increased cytokine production
same,total cell count,"[1]; 1 μM, 7 days on BCMA beads",did not alter
same,CAR+ viability,"[1]; 1 μM, 7 days on BCMA beads, 3 healthy donors",significantly increased
same,percentage positive for Lag3 expression,"[1]; 1 μM, CD4+ and CD8+ CAR+ populations",increased
same,CD25 in CD4+ and CD8+ CAR+ populations,"[1]; 1 μM, all donors",increased
same,PD-1 expression of BCMA-CAR-T cells,"[1]; 1 μM, prolonged stimulation",reduced
same,surface expression of Tim3 in the CD8+ population,"[1]; 1 μM, three donors",increased
same,"tumor growth or tumor burden, lenalidomide alone","[2]; 10 mg/kg i.p. daily, no CAR-T cells",not observed to reduce tumor growth or tumor burden
same,# animals surviving day 56 post-CART,"[2]; cell dose 1.00E+06 (hi) or 5.00E+05 (low), lenalidomide 10 mg/kg i.p. daily from day −1 (A) or day 14 (B)",0/8
same,Median Survival (assessed at day 6),"[2]; cell dose 1.00E+06 (hi) or 5.00E+05 (low), lenalidomide 10 mg/kg i.p. daily from day −1 (A) or day 14 (B), listed as lenalidomide (A)",28
same,Median Survival (assessed at day 6),"[2]; cell dose 1.00E+06 (hi) or 5.00E+05 (low), lenalidomide 10 mg/kg i.p. daily from day −1 (A) or day 14 (B), listed as lenalidomide (B)",25
same,survival effects in mice treated with anti-BCMA CAR+ T cells,"[2]; high and low CAR doses, lenalidomide at day −1 (A) or delayed d.14 (B)",improved survival effects
same,day post-CAR-T cell injection from which clear differences were observed,"[2]; higher (1×10^6) dose of CAR+ T cells, lenalidomide B",30 to 40 days
same,tumor growth and tumor burden in mice administered CAR+ T cells,"[2]; lenalidomide 10 mg/kg i.p. daily from day −1 (A), both CAR+ T cell doses",slower tumor growth and reduced tumor burden
same,tumor growth and tumor burden in mice administered CAR-T cells,"[2]; lenalidomide from day 14 post-CAR+ T (B), both doses of CAR-T cells",trend towards slower tumor growth and reduced tumor burden
same,projected cell counts over 28 days,"[3]; 0.1 μM, 3 donors, relative to controls",increased
same,CAR T CD25 expression,"[3]; 0.1 μM, repeated stimulation",significant increase
same,"IL-2, IFN-γ and TNF-α production in the media","[3]; 0.1 μM, repeated stimulation",significant increase
same,expansion of anti-BCMA CAR T cells by day 14,"[3]; 0.01-10 μM, E:T 1:2, all concentrations",increased expansion
same,expansion of cells expressing two different human anti-BCMA CARs,[3]; beginning between day 21 and day 28,increase expansion
same,"CAR-T expansion, each of six donors",[3]; concentration of lenalidomide,increase or no change
same,killing efficacy of anti-BCMA CAR+ T cells,"[4]; further donor (FIG. 23B), all time points",increased killing efficacy
same,cytolytic activity of anti-BCMA CAR+ T cells,"[4]; preincubated 7 days or 14 days, exemplary donor",greater cytolytic activity
same,cell expansion of anti-CD19 CAR+ T cells,[5],no change or only a minor effect
"Cc1nc2cccc(N)c2c(=O)n1C1CCC(=O)NC1=O (stereo not shown) [Compound 1, 3-(5-amino-2-methyl-4-oxo-4H-quinazolin-3-yl)-piperidine-2,6-dione]",tumor burden compared to CAR-expressing cells alone,"[6]; 0.3 mg/kg i.p. once a day, Concurrent and Delayed groups",reduce tumor burden
same,percent survival compared to anti-CD19 CAR-T cells only,"[6]; delayed or concurrent, low and high CAR-T dose",greater percent survival
